{"source": "the NIST ThermoML archive (doi:10.1016/j.jct.2015.12.028)", "settings": "Liquid, light scattering", "note": "Numbers after ± are expanded uncertainties."}
{"smiles": "CCCCCCCC(=O)OCC", "note": "[ethyl octanoate]", "values": [{"measurement": "speed of sound", "setting": "382.95 K, 100 kPa", "value": "972.04 ± 9.8", "unit": "m/s"}, {"measurement": "speed of sound", "setting": "382.95 K, 1050 kPa", "value": "980.18 ± 9.9", "unit": "m/s"}, {"measurement": "speed of sound", "setting": "383 K", "value": "969.3 ± 9.7", "unit": "m/s"}, {"measurement": "speed of sound", "setting": "383.03 K, 8530 kPa", "value": "1028.1 ± 10", "unit": "m/s"}, {"measurement": "speed of sound", "setting": "383.13 K, 9970 kPa", "value": "1042.4 ± 10", "unit": "m/s"}, {"measurement": "speed of sound", "setting": "391.81 K, 8490 kPa", "value": "1002.4 ± 10", "unit": "m/s"}, {"measurement": "speed of sound", "setting": "391.91 K, 9990 kPa", "value": "1015 ± 10", "unit": "m/s"}, {"measurement": "speed of sound", "setting": "392.03 K", "value": "936.3 ± 9.4", "unit": "m/s"}, {"measurement": "speed of sound", "setting": "392.15 K, 7010 kPa", "value": "991.89 ± 10", "unit": "m/s"}, {"measurement": "speed of sound", "setting": "392.29 K, 5490 kPa", "value": "982.56 ± 9.9", "unit": "m/s"}, {"measurement": "speed of sound", "setting": "392.32 K, 100 kPa", "value": "938.67 ± 9.4", "unit": "m/s"}, {"measurement": "speed of sound", "setting": "392.32 K, 1010 kPa", "value": "945.16 ± 9.5", "unit": "m/s"}, {"measurement": "speed of sound", "setting": "392.33 K, 2550 kPa", "value": "958.2 ± 9.6", "unit": "m/s"}, {"measurement": "speed of sound", "setting": "392.33 K, 4070 kPa", "value": "971.34 ± 9.8", "unit": "m/s"}, {"measurement": "speed of sound", "setting": "402.89 K, 4000 kPa", "value": "940.63 ± 9.5", "unit": "m/s"}, {"measurement": "speed of sound", "setting": "402.9 K, 7020 kPa", "value": "959.16 ± 9.7", "unit": "m/s"}, {"measurement": "speed of sound", "setting": "402.91 K, 100 kPa", "value": "905.5 ± 9.1", "unit": "m/s"}, {"measurement": "speed of sound", "setting": "402.91 K, 1000 kPa", "value": "915.87 ± 9.2", "unit": "m/s"}, {"measurement": "speed of sound", "setting": "402.91 K, 2490 kPa", "value": "928.04 ± 9.3", "unit": "m/s"}, {"measurement": "speed of sound", "setting": "402.91 K, 8480 kPa", "value": "970.85 ± 9.8", "unit": "m/s"}, {"measurement": "speed of sound", "setting": "402.92 K, 10030 kPa", "value": "980.74 ± 9.9", "unit": "m/s"}, {"measurement": "speed of sound", "setting": "402.93 K, 5470 kPa", "value": "948.7 ± 9.6", "unit": "m/s"}, {"measurement": "speed of sound", "setting": "403.14 K", "value": "901.4 ± 9.1", "unit": "m/s"}, {"measurement": "speed of sound", "setting": "412.66 K, 8500 kPa", "value": "941.83 ± 9.5", "unit": "m/s"}, {"measurement": "speed of sound", "setting": "412.76 K, 10040 kPa", "value": "953.27 ± 9.6", "unit": "m/s"}, {"measurement": "speed of sound", "setting": "412.87 K, 7050 kPa", "value": "922.57 ± 9.3", "unit": "m/s"}, {"measurement": "speed of sound", "setting": "413.12 K", "value": "869.5 ± 8.8", "unit": "m/s"}, {"measurement": "speed of sound", "setting": "413.17 K, 5530 kPa", "value": "910.63 ± 9.2", "unit": "m/s"}, {"measurement": "speed of sound", "setting": "413.21 K, 100 kPa", "value": "872.52 ± 8.8", "unit": "m/s"}, {"measurement": "speed of sound", "setting": "413.21 K, 1080 kPa", "value": "878.09 ± 8.8", "unit": "m/s"}, {"measurement": "speed of sound", "setting": "413.21 K, 4060 kPa", "value": "901.97 ± 9.1", "unit": "m/s"}, {"measurement": "speed of sound", "setting": "413.22 K, 2570 kPa", "value": "890.98 ± 9", "unit": "m/s"}, {"measurement": "speed of sound", "setting": "423.11 K", "value": "835.7 ± 8.4", "unit": "m/s"}, {"measurement": "speed of sound", "setting": "423.24 K, 8520 kPa", "value": "908.5 ± 9.2", "unit": "m/s"}, {"measurement": "speed of sound", "setting": "423.29 K, 7010 kPa", "value": "892.99 ± 9", "unit": "m/s"}, {"measurement": "speed of sound", "setting": "423.3 K, 5530 kPa", "value": "882.56 ± 8.9", "unit": "m/s"}, {"measurement": "speed of sound", "setting": "423.31 K, 2520 kPa", "value": "857.92 ± 8.6", "unit": "m/s"}, {"measurement": "speed of sound", "setting": "423.32 K, 100 kPa", "value": "839.73 ± 8.5", "unit": "m/s"}, {"measurement": "speed of sound", "setting": "423.32 K, 1150 kPa", "value": "848.64 ± 8.6", "unit": "m/s"}, {"measurement": "speed of sound", "setting": "423.44 K, 10060 kPa", "value": "919.28 ± 9.3", "unit": "m/s"}, {"measurement": "speed of sound", "setting": "423.53 K, 4090 kPa", "value": "870.32 ± 8.8", "unit": "m/s"}, {"measurement": "speed of sound", "setting": "432.95 K, 5520 kPa", "value": "847.49 ± 8.6", "unit": "m/s"}, {"measurement": "speed of sound", "setting": "432.96 K, 8480 kPa", "value": "875.16 ± 8.8", "unit": "m/s"}, {"measurement": "speed of sound", "setting": "433.06 K, 10010 kPa", "value": "888.66 ± 9", "unit": "m/s"}, {"measurement": "speed of sound", "setting": "433.09 K, 7010 kPa", "value": "859.4 ± 8.7", "unit": "m/s"}, {"measurement": "speed of sound", "setting": "433.2 K", "value": "801.1 ± 8.1", "unit": "m/s"}, {"measurement": "speed of sound", "setting": "433.41 K, 2490 kPa", "value": "823.86 ± 8.3", "unit": "m/s"}, {"measurement": "speed of sound", "setting": "433.44 K, 100 kPa", "value": "807.14 ± 8.1", "unit": "m/s"}, {"measurement": "speed of sound", "setting": "433.44 K, 1010 kPa", "value": "813.1 ± 8.2", "unit": "m/s"}, {"measurement": "speed of sound", "setting": "433.84 K, 4510 kPa", "value": "835.67 ± 8.4", "unit": "m/s"}, {"measurement": "speed of sound", "setting": "442.69 K, 8510 kPa", "value": "841.83 ± 8.5", "unit": "m/s"}, {"measurement": "speed of sound", "setting": "442.9 K, 7010 kPa", "value": "829.81 ± 8.4", "unit": "m/s"}, {"measurement": "speed of sound", "setting": "442.99 K, 10020 kPa", "value": "857.21 ± 8.7", "unit": "m/s"}, {"measurement": "speed of sound", "setting": "443.05 K", "value": "770.7 ± 7.8", "unit": "m/s"}, {"measurement": "speed of sound", "setting": "443.15 K, 5510 kPa", "value": "817.42 ± 8.2", "unit": "m/s"}, {"measurement": "speed of sound", "setting": "443.16 K, 3990 kPa", "value": "805.02 ± 8.1", "unit": "m/s"}, {"measurement": "speed of sound", "setting": "443.51 K, 2510 kPa", "value": "790.8 ± 8", "unit": "m/s"}, {"measurement": "speed of sound", "setting": "443.55 K, 100 kPa", "value": "774.74 ± 7.8", "unit": "m/s"}, {"measurement": "speed of sound", "setting": "443.55 K, 990 kPa", "value": "780.57 ± 7.9", "unit": "m/s"}, {"measurement": "speed of sound", "setting": "452.41 K, 8480 kPa", "value": "813.49 ± 8.2", "unit": "m/s"}, {"measurement": "speed of sound", "setting": "452.7 K, 7010 kPa", "value": "798.22 ± 8.1", "unit": "m/s"}, {"measurement": "speed of sound", "setting": "453.11 K", "value": "738.5 ± 7.5", "unit": "m/s"}, {"measurement": "speed of sound", "setting": "453.15 K, 5520 kPa", "value": "789.35 ± 8", "unit": "m/s"}, {"measurement": "speed of sound", "setting": "453.41 K, 10010 kPa", "value": "826.34 ± 8.3", "unit": "m/s"}, {"measurement": "speed of sound", "setting": "453.47 K, 4510 kPa", "value": "776.37 ± 7.8", "unit": "m/s"}, {"measurement": "speed of sound", "setting": "453.61 K, 2490 kPa", "value": "762.74 ± 7.7", "unit": "m/s"}, {"measurement": "speed of sound", "setting": "453.66 K, 100 kPa", "value": "742.53 ± 7.5", "unit": "m/s"}, {"measurement": "speed of sound", "setting": "453.66 K, 1010 kPa", "value": "749.03 ± 7.6", "unit": "m/s"}, {"measurement": "speed of sound", "setting": "462.5 K, 7010 kPa", "value": "772.63 ± 7.8", "unit": "m/s"}, {"measurement": "speed of sound", "setting": "463.14 K, 8480 kPa", "value": "783.19 ± 7.9", "unit": "m/s"}, {"measurement": "speed of sound", "setting": "463.15 K, 5520 kPa", "value": "760.28 ± 7.7", "unit": "m/s"}, {"measurement": "speed of sound", "setting": "463.17 K", "value": "705.5 ± 7.1", "unit": "m/s"}, {"measurement": "speed of sound", "setting": "463.24 K, 10010 kPa", "value": "795.41 ± 8", "unit": "m/s"}, {"measurement": "speed of sound", "setting": "463.71 K, 2490 kPa", "value": "730.68 ± 7.4", "unit": "m/s"}, {"measurement": "speed of sound", "setting": "463.78 K, 100 kPa", "value": "710.51 ± 7.2", "unit": "m/s"}, {"measurement": "speed of sound", "setting": "463.78 K, 1010 kPa", "value": "715.5 ± 7.2", "unit": "m/s"}, {"measurement": "speed of sound", "setting": "463.79 K, 4510 kPa", "value": "744.72 ± 7.5", "unit": "m/s"}, {"measurement": "speed of sound", "setting": "472.07 K, 8500 kPa", "value": "760.99 ± 7.7", "unit": "m/s"}, {"measurement": "speed of sound", "setting": "472.09 K, 1040 kPa", "value": "688.23 ± 7", "unit": "m/s"}, {"measurement": "speed of sound", "setting": "472.09 K, 6960 kPa", "value": "745.31 ± 7.5", "unit": "m/s"}, {"measurement": "speed of sound", "setting": "472.11 K, 2530 kPa", "value": "704.34 ± 7.1", "unit": "m/s"}, {"measurement": "speed of sound", "setting": "472.14 K, 5460 kPa", "value": "730.7 ± 7.4", "unit": "m/s"}, {"measurement": "speed of sound", "setting": "472.15 K, 4000 kPa", "value": "718.2 ± 7.3", "unit": "m/s"}, {"measurement": "speed of sound", "setting": "472.16 K", "value": "675 ± 6.8", "unit": "m/s"}, {"measurement": "speed of sound", "setting": "472.17 K, 10000 kPa", "value": "773.29 ± 7.8", "unit": "m/s"}, {"measurement": "speed of sound", "setting": "473.09 K, 100 kPa", "value": "678.69 ± 6.9", "unit": "m/s"}]}
